From patent US8975417B2, “Pyrazolopyrrolidine derivatives and their use in the treatment of disease” (Novartis AG, priority 2013, dated 2015)

Columns and labels:
His-Brd3(20-477) = His-Brd3(20-477) (Homo sapiens (Human), UniProt Q15059); assay: TR-FRET in-vitro binding assay for BRD3; details: biochemical
Outline: (§1)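 Bromodomain protein (45 nM in its addition solution) and tetra-acetylated histone H4 peptide (AcK5/8/12/16; 60 nM in its addition solution) were incubated with compounds for 35 min at 30 °C in 50 mM HEPES pH 7.5, 50 mM NaCl, 0.005% Tween20, 0.1% BSA. Eu-anti-His6 plus streptavidin-allophycocyanin detection followed, with TR-FRET read-out.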

[1] = target: His-CREBBP (1081-1197) bromodomain (Homo sapiens (Human), UniProt Q92793); assay: AlphaScreen in-vitro binding assay for CREBBP; details: biochemical
Outline: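 Ni-chelate acceptor and streptavidin donor beads (45 µg/mL each, in 50 mM HEPES pH 7.5, 150 mM NaCl, 0.02% BSA) were then added for 60 min at room temperature. IC50 came from 8-point non-linear regression.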

[2] = target: nuclear BRD4-NUT foci in HCC2494 NUT midline carcinoma cells (Homo sapiens (Human), UniProt O60885+Q86Y26); assay: Nut-foci formation assay; format: cell-based; details: 24 hours, read-out: HCS Brd4-NUT IC50
Outline: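 HCC2494 cells carrying BRD4-NUT, treated 24 h at 37 °C with 3-fold dilutions from 10 μM. Fixed and stained with anti-NUT antibody, imaged automatically to count nuclear foci per nucleus.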

His-Brd2(60-472) = His-Brd2(60-472) (Homo sapiens (Human), UniProt P25440); assay: TR-FRET in-vitro binding assay for BRD2; details: biochemical
Outline: as §1

Sequence of His-Brd2(60-472) (P25440 60-472): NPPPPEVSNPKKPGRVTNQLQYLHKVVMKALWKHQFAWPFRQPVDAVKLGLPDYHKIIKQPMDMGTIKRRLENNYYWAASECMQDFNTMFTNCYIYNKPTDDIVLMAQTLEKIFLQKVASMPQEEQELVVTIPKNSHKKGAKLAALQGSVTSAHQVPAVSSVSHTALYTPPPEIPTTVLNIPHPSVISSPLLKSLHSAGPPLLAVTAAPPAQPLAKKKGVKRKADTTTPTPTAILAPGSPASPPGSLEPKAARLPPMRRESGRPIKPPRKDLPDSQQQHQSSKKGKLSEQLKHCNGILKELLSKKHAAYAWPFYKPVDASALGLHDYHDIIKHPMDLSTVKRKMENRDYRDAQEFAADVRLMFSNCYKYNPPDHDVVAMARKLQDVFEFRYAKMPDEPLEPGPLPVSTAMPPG
Sequence of His-CREBBP (1081-1197) bromodomain (Q92793 1081-1197): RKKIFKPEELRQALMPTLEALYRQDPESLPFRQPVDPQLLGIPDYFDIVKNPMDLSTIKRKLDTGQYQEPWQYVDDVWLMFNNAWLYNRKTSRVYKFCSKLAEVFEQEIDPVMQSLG
Sequence of His-Brd3(20-477) (Q15059 20-477): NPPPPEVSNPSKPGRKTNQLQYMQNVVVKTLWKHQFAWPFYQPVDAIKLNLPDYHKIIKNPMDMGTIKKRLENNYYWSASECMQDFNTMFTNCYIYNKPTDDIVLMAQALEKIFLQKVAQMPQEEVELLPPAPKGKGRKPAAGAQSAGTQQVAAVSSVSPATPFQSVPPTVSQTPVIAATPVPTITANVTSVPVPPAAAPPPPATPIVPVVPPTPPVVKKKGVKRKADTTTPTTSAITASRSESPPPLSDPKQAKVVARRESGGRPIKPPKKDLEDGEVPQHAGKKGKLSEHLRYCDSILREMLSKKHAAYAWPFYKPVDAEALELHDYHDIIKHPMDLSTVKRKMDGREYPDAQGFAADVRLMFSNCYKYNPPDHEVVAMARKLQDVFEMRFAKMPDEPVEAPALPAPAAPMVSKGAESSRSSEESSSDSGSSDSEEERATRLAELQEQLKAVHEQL

SMILES	IC50 (His-Brd3(20-477)) [nM]	IC50 [1] [nM]	IC50 [2] [nM]	IC50 (His-Brd2(60-472)) [nM]
Cc1nn(-c2ccnn2C)c2c1C(c1ccc(Cl)cc1)N(c1cc(C)c3nnc(C)n3c1)C2=O (stereo not drawn) [Example 90, 4-(4-chlorophenyl)-5-(3,8-dimethyl-[1,2,4]triazolo[4,3-a]pyridin-6-yl)-3-methyl-1-(1-methyl-1H-pyrazol-5-yl)-4,5-dihydropyrrolo[3,4-c]pyrazol-6(1H)-one]	28	> 37000	45	28
Cc1cc(N2C(=O)c3nn(C4CNC4)c(C)c3C2c2ccc(Cl)cc2)cn2c(C)nnc12 (stereo not drawn) [Example 152, 2-(azetidin-3-yl)-4-(4-chlorophenyl)-5-(3,8-dimethyl-[1,2,4]triazolo[4,3-a]pyridin-6-yl)-3-methyl-4,5-dihydropyrrolo[3,4-c]pyrazol-6(2H)-one]	110	3100	1350	100
Cc1cc(N2C(=O)c3nn(C(=O)N(C)C)c(C)c3C2c2ccc(Cl)cc2)cn(C)c1=O (stereo not drawn) [Example 141, 4-(4-chlorophenyl)-5-(1,5-dimethyl-6-oxo-1,6-dihydropyridin-3-yl)-N,N,3-trimethyl-6-oxo-5,6-dihydropyrrolo[3,4-c]pyrazole-2(4H)-carboxamide]	130	1500	231	180
COc1ncc(-n2nc(C)c3c2C(=O)N(c2cc(C)c(=O)n(C)c2)C3c2ccc(Cl)cc2)c(OC)n1 (racemic) [Example 52, 4-(4-chlorophenyl)-1-(2,4-dimethoxypyrimidin-5-yl)-5-(1,5-dimethyl-6-oxo-1,6-dihydropyridin-3-yl)-3-methyl-4,5-dihydropyrrolo[3,4-c]pyrazol-6(1H)-one]	69	5700	117	63
CNC(=O)n1nc(C)c2c1C(=O)N(c1cc(C)c3nnc(C)n3c1)C2c1ccc(Cl)cc1 (stereo not drawn) [Example 145, 4-(4-chlorophenyl)-5-(3,8-dimethyl-[1,2,4]triazolo[4,3-a]pyridin-6-yl)-N,3-dimethyl-6-oxo-5,6-dihydropyrrolo[3,4-c]pyrazole-1(4H)-carboxamide]	190	> 37000	108	180
COc1ncc(-n2nc3c(c2C)C(c2ccc(Cl)cc2)N(c2cc(Cl)c(=O)n(C)c2)C3=O)c(OC)n1 (stereo not drawn) [Example 55, 5-(5-chloro-1-methyl-6-oxo-1,6-dihydropyridin-3-yl)-4-(4-chlorophenyl)-2-(2,4-dimethoxypyrimidin-5-yl)-3-methyl-4,5-dihydropyrrolo[3,4-c]pyrazol-6(2H)-one]	79	600	54.1	98
COc1ncccc1-n1nc(C)c2c1C(=O)N(c1cc(C)c3nnc(C)n3c1)C2c1ccc(Cl)cc1 (stereo not drawn) [Example 101, 4-(4-chlorophenyl)-5-(3,8-dimethyl-[1,2,4]triazolo[4,3-a]pyridin-6-yl)-1-(2-methoxypyridin-3-yl)-3-methyl-4,5-dihydropyrrolo[3,4-c]pyrazol-6(1H)-one]	36	19000	66.1	43
Cc1nn(C2CC2)c2c1[C@@H](c1ccc(Cl)cc1)N(c1cc(Cl)c(=O)n(C)c1)C2=O [Example 51, (R)-5-(5-chloro-1-methyl-6-oxo-1,6-dihydropyridin-3-yl)-4-(4-chlorophenyl)-1-cyclopropyl-3-methyl-4,5-dihydropyrrolo[3,4-c]pyrazol-6(1H)-one]	21	1400	76.4	17
CCc1nn(CCO)c2c1C(c1ccc(Cl)cc1)N(c1cc(C)c(=O)n(C)c1)C2=O (stereo not drawn) [Example 78, 4-(4-chlorophenyl)-5-(1,5-dimethyl-6-oxo-1,6-dihydropyridin-3-yl)-3-ethyl-1-(2-hydroxyethyl)-4,5-dihydropyrrolo[3,4-c]pyrazol-6(1H)-one]	57	3100	39.5	79
CCOC(=O)N1CC(n2nc(C)c3c2C(=O)N(c2cc(C)c4nnc(C)n4c2)C3c2ccc(Cl)cc2)C1 (stereo not drawn) [Example 156, Ethyl 3-(4-(4-chlorophenyl)-5-(3,8-dimethyl-[1,2,4]triazolo[4,3-a]pyridin-6-yl)-3-methyl-6-oxo-5,6-dihydropyrrolo[3,4-c]pyrazol-1(4H)-yl)azetidine-1-carboxylate]	77	> 37000	43.3	59
Cc1nn(C2CC2)c2c1C(c1ccc(Cl)cc1)N(c1cc(N(C)C(=O)OC(C)(C)C)c3nnc(C)n3n1)C2=O (stereo not drawn) [Example 112, tert-butyl (6-(4-(4-chlorophenyl)-1-cyclopropyl-3-methyl-6-oxopyrrolo[3,4-c]pyrazol-5(1H,4H,6H)-yl)-3-methyl-[1,2,4]triazolo[4,3-b]pyridazin-8-yl)(methyl)carbamate]	> 37000	> 37000	3350	> 37000
Cc1nn(-c2ccnn2C)c2c1[C@H](c1ccc(Cl)cc1)N(c1cc(C)c3nnc(C)n3c1)C2=O [Example 124, (S)-4-(4-chlorophenyl)-5-(3,8-dimethyl-[1,2,4]triazolo[4,3-a]pyridin-6-yl)-3-methyl-1-(1-methyl-1H-pyrazol-5-yl)-4,5-dihydropyrrolo[3,4-c]pyrazol-6(1H)-one]	37000	> 37000	1730	29000
Cc1nn(C2CC2)c2c1C(c1ccc(C(F)(F)F)cc1)N(c1cc(C)c(=O)n(C)c1)C2=O (stereo not drawn) [Example 97, 1-cyclopropyl-5-(1,5-dimethyl-6-oxo-1,6-dihydropyridin-3-yl)-3-methyl-4-(4-(trifluoromethyl)phenyl)-4,5-dihydropyrrolo[3,4-c]pyrazol-6(1H)-one]	120	3600	145	88
CCOc1c2c(nn1C)C(=O)N(c1cc(C)c(=O)n(C)c1)C2c1ccc(Cl)cc1 (stereo not drawn) [Example 76, 4-(4-chlorophenyl)-5-(1,5-dimethyl-6-oxo-1,6-dihydropyridin-3-yl)-3-ethoxy-2-methyl-4,5-dihydropyrrolo[3,4-c]pyrazol-6(2H)-one]	100	2900	106	100
Cc1cc(N2C(=O)c3c(c(CO)nn3C3CC3)C2c2ccc(Cl)cc2)cn2c(C)nnc12 (stereo not drawn) [Example 131, 4-(4-chlorophenyl)-1-cyclopropyl-5-(3,8-dimethyl-[1,2,4]triazolo[4,3-a]pyridin-6-yl)-3-(hydroxymethyl)-4,5-dihydropyrrolo[3,4-c]pyrazol-6(1H)-one]	52	30000	27.7	46
CCc1nn(C2CC2)c2c1[C@@H](c1ccc(Cl)cc1)N(c1cc(C)c3nnc(C)n3c1)C2=O [Example 107, (R)-4-(4-chlorophenyl)-1-cyclopropyl-5-(3,8-dimethyl-[1,2,4]triazolo[4,3-a]pyridin-6-yl)-3-ethyl-4,5-dihydropyrrolo[3,4-c]pyrazol-6(1H)-one]	13	6900	2.9	14
CCc1c2c(nn1CCO)C(=O)N(c1cc(C)c3onc(C)c3c1)C2c1ccc(Cl)cc1 (stereo not drawn) [Example 80, 4-(4-chlorophenyl)-5-(3,7-dimethylbenzo[d]isoxazol-5-yl)-3-ethyl-2-(2-hydroxyethyl)-4,5-dihydropyrrolo[3,4-c]pyrazol-6(2H)-one]	36	5000	178	59
CCc1nn(C2CC2)c2c1C(c1ccc(Cl)cc1)N(c1cc(C)c3nnc(C)n3c1)C2=O (stereo not drawn) [Example 70, 4-(4-chlorophenyl)-1-cyclopropyl-5-(3,8-dimethyl-[1,2,4]triazolo[4,3-a]pyridin-6-yl)-3-ethyl-4,5-dihydropyrrolo[3,4-c]pyrazol-6(1H)-one]	29	11000	11.4	31
Cc1nn(C(C)C)c2c1[C@H](c1ccc(Cl)cc1)N(c1cc(C)c(=O)n(C)c1)C2=O [Example 103, (S)-4-(4-chlorophenyl)-5-(1,5-dimethyl-6-oxo-1,6-dihydropyridin-3-yl)-1-isopropyl-3-methyl-4,5-dihydropyrrolo[3,4-c]pyrazol-6(1H)-one]	6100	> 37000	> 10000	5300
Cc1nn(-c2cncn2C)c2c1C(c1ccc(Cl)cc1)N(c1cc(C)c(=O)n(C)c1)C2=O (stereo not drawn) [Example 83, 4-(4-chlorophenyl)-5-(1,5-dimethyl-6-oxo-1,6-dihydropyridin-3-yl)-3-methyl-1-(1-methyl-1H-imidazol-5-yl)-4,5-dihydropyrrolo[3,4-c]pyrazol-6(1H)-one]	97	6100	96.8	120
Cn1cc(N2C(=O)c3c(c(C(F)(F)F)nn3C3CC3)C2c2ccc(Cl)cc2)cc(Cl)c1=O (stereo not drawn) [Example 44, 5-(5-chloro-1-methyl-6-oxo-1,6-dihydropyridin-3-yl)-4-(4-chlorophenyl)-1-cyclopropyl-3-(trifluoromethyl)-4,5-dihydropyrrolo[3,4-c]pyrazol-6(1H)-one]	280	3900	164	170
